From PubChem BioAssay (NCI)
Several values for one entry are separate records, joined by “and”; a condition that tells them apart may be missing. Equal values may be shown once.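 48-hour exposure; five concentrations; linearly interpolated endpoints. The concentration for 50% growth inhibition is given as GI50. TGI marks complete inhibition of growth.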

How the values were obtained:
Experiment in all cases: NCI-60 cell line screen, 48 h
[1] = tested on: MOLT-4 leukemia
[2] = tested on: SK-MEL-28 melanoma
[3] = tested on: TK-10 renal
[4] = tested on: SK-OV-3 ovarian
[5] = tested on: KM12 colon
[6] = tested on: HCC-2998 colon
[7] = tested on: LOX IMVI melanoma
[8] = tested on: U251 CNS
[9] = tested on: COLO 205 colon
[10] = tested on: SNB-75 CNS

Structure (SMILES) | GI50 [1] [µM] | TGI [1] [µM] | GI50 [2] | TGI [2] | GI50 [3] | TGI [3] | GI50 [4] | TGI [4] | GI50 [5] | TGI [5] | GI50 [6] | TGI [6] | GI50 [7] | TGI [7] | GI50 [8] | TGI [8] | GI50 [9] | TGI [9] | GI50 [10] | TGI [10]
CC(C)(C)OC(=O)NCc1cccc(N=C=S)c1 | 19.7 | 53.6 | 16.9 µM | 37.7 µM | 25.8 µM | 70.8 µM | 35.5 µM | > 84.9 µM | 16.5 µM | 32.8 µM | 16.3 µM | 30.9 µM | 16.7 µM | 31.9 µM | 23 µM | 53.4 µM | 15.7 µM | 33.9 µM | 14.1 µM | > 59.6 µM
O=C1N(Cc2ccccc2Cl)c2ccccc2C12NN=C(c1cccc(Cl)c1)S2 (stereo not drawn) | 2.04 | 4.64 | 1.86 µM | 3.57 µM | 1.77 µM | 3.15 µM | 1.69 µM | 3.05 µM | 1.82 µM | 3.79 µM | 1.78 µM | 3.24 µM | 1.49 µM | 2.92 µM | 1.77 µM | 3.15 µM | 1.77 µM | 3.3 µM | 1.47 µM | 2.84 µM
NC(=O)c1sc(-n2cnc3cc(C(F)(F)F)ccc32)cc1OCc1ccccc1Br | > 25 | > 25 | > 23.4 µM | > 25 µM | > 25 µM | > 25 µM | 9.07 µM | > 25 µM | > 19.9 µM | > 25 µM | > 25 µM | > 25 µM | > 17.5 µM | > 25 µM | > 15.8 µM | > 25 µM | > 25 µM | > 25 µM | 8.72 µM | > 18.8 µM
COc1ccc(CCN2CCC(CN(C)Cc3cnn(-c4ccccc4)c3)CC2)cc1 | 12.8 | 66.7 | 2.52 µM | 7.53 µM | 16.3 µM | 32.6 µM | 16.2 µM | 39.9 µM | 15.4 µM | 30.8 µM | 5.13 µM | 18.1 µM | 12.1 µM | 24.8 µM | 13 µM | 27 µM | 3.42 µM | 11.7 µM | 8.83 µM | 21.2 µM
O=[N+]([O-])c1cc2no[n+]([O-])c2cc1N1CCCCC1 |  | 4.95 |  | 32.9 µM |  | 9.08 µM |  | 27.4 µM |  | 30.5 µM |  | 33.1 µM |  | 4.81 µM |  | 20.2 µM |  | 30.4 µM |  | 9.8 µM
COc1cc2c(c(OC)c1OC)-c1ccc(N=NC(N)=S)c(=O)cc1[C@@H](NC(C)=O)CC2 | 1.3 | > 100 | 0.808 µM | > 100 µM | 9.01 µM | > 100 µM | 0.43 µM |  | 0.394 µM |  | 0.311 µM | 1.76 µM | 0.618 µM | > 100 µM | 0.426 µM | > 100 µM | 0.26 µM | 0.682 µM | 0.256 µM | 
CC1=Nc2c([nH]c(=S)[nH]c2=O)NC(c2c(Cl)cccc2Cl)C1 (stereo not drawn) |  | 5.43 |  | 6.26 µM |  | 18 µM |  | 18.1 µM |  | 4.51 µM |  | 22.9 µM |  | 1.84 µM |  | 2.32 µM |  | 4.34 µM |  | 10.6 µM
CC1SC2(CCCCC2)N(NC(=O)c2[nH]c3ccc(Br)cc3c2-c2ccccc2)C1=O (stereo not drawn) | 3.95 | > 100 | 56.2 µM | > 100 µM | 26.2 µM | > 100 µM | > 100 µM | > 100 µM | 16.1 µM | > 100 µM | > 100 µM | > 100 µM | 92.7 µM | > 100 µM | 41.3 µM | > 100 µM | > 100 µM | > 100 µM | 22.6 µM | 90 µM
CN(C)c1cccc(F)c1C(=O)NC(=O)Nc1ccc(Cl)cc1 |  | > 100 |  | > 100 µM |  | > 100 µM |  | > 29.3 µM |  | > 100 µM |  | 28.3 µM |  | > 100 µM |  | > 100 µM |  | > 100 µM |  | 9.12 µM
Cc1[nH]c2cc(F)ccc2c1-c1nc2c3cccnc3c3ncccc3c2[nH]1 | 0.17 | 0.642 | 0.239 µM | 1.72 µM | 0.396 µM | 2.34 µM |  |  | 0.379 µM | 1.78 µM | 0.117 µM | 1.3 µM | 0.0472 µM | 0.697 µM | 0.121 µM | 1.22 µM | 0.178 µM | 1.26 µM | 0.473 µM | 1.84 µM
COc1cc(Cl)cc(-c2nn(-c3cccc(NC(=O)Nc4ccc(Cl)c(Cl)c4)c3)cc2-c2ccncc2)c1 | 1.69 | 6.13 | 2.96 µM | 36.8 µM |  |  | 3.6 µM | 87 µM | 2.02 µM | 10.8 µM | 3.16 µM | 36.8 µM | 2.91 µM | 12.4 µM | 1.7 µM | 6.03 µM | 1.71 µM | 3.31 µM | 2.11 µM | 48.6 µM
COCCOCCOCCOc1cccc2c1C(=O)c1cccc(OCCOCCOCCOC)c1C2=O |  | > 100 |  | > 100 µM |  | > 100 µM |  | > 100 µM |  |  |  | > 100 µM |  | > 100 µM |  | > 100 µM |  | > 100 µM |  | > 100 µM
CC(=O)NC(C=O)C(O[C@H](C)C(=O)NC(C)C(=O)NC(CCC(N)=O)C(=O)OCc1ccccc1)C(O)C(O)COC(=O)CCNc1c2ccccc2nc2cccc([N+](=O)[O-])c12 (stereo partly drawn) |  | 14.8 |  | 11.6 µM |  | 53.6 µM |  |  |  | 3.75 µM |  | 2.94 µM |  | 31.3 µM |  | 7.14 µM |  | 2.74 µM |  | 17.8 µM
COc1ccc2c(c1)-c1nn(CCCN(C)C)c3ccc([N+](=O)[O-])c(c13)N2 |  |  | 0.77 µM and 1.75 µM | 7.78 µM and 12.6 µM | 0.345 µM and 0.809 µM | 4.69 µM and 7.86 µM | 0.175 µM and 0.866 µM | 1.86 µM and 7.69 µM | 0.194 µM and 0.43 µM | 2.54 µM and 2.58 µM | 0.148 µM and 0.728 µM | 1.73 µM and 12.2 µM | 0.101 µM and 0.345 µM | 0.957 µM and 4.08 µM | 0.178 µM and 0.502 µM | 4.94 µM and 14.7 µM | 0.0962 µM and 0.276 µM | 0.913 µM and 3.75 µM | 0.197 µM and 0.573 µM | 1.02 µM and 3.85 µM
COC1CC(N)C(O)C(C)O1 (stereo not drawn) |  | > 100 |  | > 100 µM |  |  |  | > 100 µM |  | > 100 µM |  | > 100 µM |  | > 100 µM |  | > 100 µM |  | > 100 µM |  | > 100 µM
